Measured values as given in ChEMBL document CHEMBL1201862, “PubChem BioAssay data set” (2004).
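1) Cells in 96-well plates. 2) Compound, 48 h, 5 concentrations. 3) Linear interpolation between surrounding doses. 4) Unreached endpoint = highest concentration. GI50 marks 50% less growth.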 Active and inactive are the calls of the source. Rule as the data show it: active = GI50 up to about 1.1 µM and inactive = higher.

Legend:
Assay in all cases: inhibition of tumour cell growth, NCI panel, 48 h
[1] = system: SF-295
[2] = system: SF-268
[3] = system: OVCAR-3
[4] = system: SN12C
[5] = system: HT-29
[6] = system: HOP-92
[7] = system: IGROV-1
[8] = system: Malme-3M
[9] = system: SNB-75
[10] = system: EKVX
[11] = system: TK-10
[12] = system: NCI-H522
[13] = system: ACHN
[14] = system: HL-60
[15] = system: K562
[16] = system: M14
[17] = system: MCF7

Measured: GI50

CC(=O)NNc1nc(C)c(C(=O)/C=C/c2ccc(Cl)c(Cl)c2)s1
inactive: [1] > 100 µM | [2] > 100 µM | [3] > 100 µM | [4] > 100 µM | [5] > 100 µM | [6] > 100 µM | [7] > 100 µM | [8] > 100 µM | [9] > 100 µM | [10] > 100 µM | [11] > 100 µM | [12] 95.9 µM | [13] > 100 µM | [14] > 100 µM | [15] > 100 µM

Cc1ccc(NC(=O)CC2C(=O)Nc3ccccc3S2(=O)=O)cc1C (stereo not given)
inactive: [1] > 100 µM | [2] > 10 µM | [3] > 100 µM | [16] > 100 µM | [4] > 100 µM | [5] > 100 µM | [6] > 100 µM | [7] > 100 µM | [8] > 100 µM | [9] > 100 µM | [10] > 100 µM | [11] > 100 µM | [12] > 100 µM | [13] > 100 µM | [14] > 100 µM | [15] > 100 µM

O=C(Nc1ccc(Cl)cc1)/C(Cc1cccc[n+]1[O-])=N\Nc1ccc([N+](=O)[O-])cc1[N+](=O)[O-]
inactive: [1] > 100 µM | [2] > 100 µM | [3] > 100 µM | [16] > 100 µM | [4] > 100 µM | [6] > 100 µM | [7] > 100 µM | [8] > 100 µM | [9] > 100 µM | [10] > 100 µM | [11] > 100 µM | [12] > 100 µM | [13] > 100 µM | [14] > 100 µM | [15] > 100 µM

C=CC1=C(C)/C(=C/C2=NC(=C\c3[nH]c(CC4NC(=O)C(C)/C4=C\C)c(C)c3CCC(=O)O)/C(CC(=O)O)=C2C)NC1=O (stereo not given)
inactive: [1] > 100 µM | [2] > 100 µM | [3] > 100 µM | [16] > 100 µM | [4] > 100 µM | [5] > 100 µM | [6] 70 µM | [7] > 100 µM | [8] > 100 µM | [9] > 100 µM | [10] > 100 µM | [11] > 100 µM | [12] > 100 µM | [13] > 100 µM | [14] > 100 µM | [15] > 100 µM

On1c(-c2ccccc2)c(-c2ccccc2N2CCCC2)c2ccccc21
inactive: [1] > 100 µM | [2] > 100 µM | [3] > 100 µM | [16] > 100 µM | [4] > 100 µM | [5] > 100 µM | [6] > 100 µM | [7] > 100 µM | [8] > 100 µM | [9] > 100 µM | [10] > 100 µM | [11] > 100 µM | [12] > 100 µM | [13] > 100 µM | [14] > 100 µM | [15] > 100 µM

CC(=O)OCC1OC(Sc2ccccn2)C=CC1OC(C)=O (stereo not given)
inactive: [1] > 100 µM | [2] > 100 µM | [3] > 100 µM | [16] > 100 µM | [4] > 100 µM | [5] > 100 µM | [6] > 100 µM | [7] > 100 µM | [8] > 100 µM | [9] > 100 µM | [10] > 100 µM | [11] > 100 µM | [12] > 100 µM | [13] > 100 µM | [14] > 100 µM | [15] > 100 µM

CN1C2(c3ccccc3)c3c(-c4ccccc4)sc(-c4ccccc4)c3C1(c1ccccc1)C1C(=O)N(c3ccccc3)C(=O)C12 (stereo not given)
inactive: [1] > 100 µM | [2] > 100 µM | [3] > 100 µM | [16] > 100 µM | [4] > 100 µM | [5] > 100 µM | [6] > 100 µM | [7] > 100 µM | [8] > 100 µM | [9] > 100 µM | [10] > 100 µM | [11] > 100 µM | [12] > 100 µM | [13] > 100 µM | [14] > 100 µM | [15] > 100 µM

Cc1cc2c(c(C(N)=O)c1C)-c1cccc(Cl)c1C2=O
inactive: [1] > 100 µM | [2] > 100 µM | [3] > 100 µM | [16] > 100 µM | [4] > 100 µM | [5] > 100 µM | [6] > 100 µM | [7] > 100 µM | [8] > 100 µM | [9] 6.7 µM | [10] > 100 µM | [11] > 100 µM | [12] 27 µM | [13] > 100 µM | [14] > 100 µM | [15] > 100 µM

CN1C(c2ccccc2)CC(O)CC1c1ccccc1 (stereo not given)
inactive: [1] > 100 µM | [2] > 100 µM | [3] > 100 µM | [16] > 100 µM | [4] > 100 µM | [5] > 100 µM | [6] > 100 µM | [7] > 100 µM | [8] > 100 µM | [9] > 100 µM | [10] > 100 µM | [11] > 100 µM | [12] > 100 µM | [13] > 100 µM | [14] > 100 µM | [15] > 100 µM

O=C(/C=C/c1ccccc1)c1cc(C(=O)/C=C/c2ccccc2)c(O)cc1O
inactive: [16] > 100 µM | [4] > 100 µM | [17] 51.4 µM | [5] > 100 µM | [6] > 100 µM | [7] > 100 µM | [8] > 100 µM | [10] 18.7 µM | [11] > 100 µM | [13] 73.1 µM | [14] > 100 µM

O=c1ccn([C@H]2CSC[C@@H](CO)C2)c(=O)[nH]1
inactive: [1] > 10 µM | [2] > 100 µM | [3] > 100 µM | [16] > 100 µM | [4] > 100 µM | [5] > 100 µM | [6] > 100 µM | [7] > 100 µM | [8] > 100 µM | [9] 56.4 µM | [10] > 100 µM | [11] > 100 µM | [12] > 100 µM | [13] > 100 µM | [14] > 100 µM | [15] > 100 µM

Cc1c(-c2nnc(-c3ccccc3)o2)c(=O)n(-c2ccccc2)n1C
inactive: [1] > 100 µM | [2] > 100 µM | [3] > 100 µM | [16] > 100 µM | [4] > 100 µM | [5] > 100 µM | [6] > 100 µM | [7] > 100 µM | [8] > 100 µM | [9] > 100 µM | [10] > 100 µM | [11] > 100 µM | [12] > 100 µM | [13] > 100 µM | [14] > 100 µM | [15] > 100 µM
